In BindingDB's records for doi:10.1016/j.bmc.2010.06.025 (Wayne State University, 2010) one finds Ki data, which are given here for 1 compound.

The structures appear in SMILES notation.

For one test, the target named is D(2) dopamine receptor (Rattus norvegicus, UniProt P61169). Nature of the test: Displacement of [3H]spiperone from rat D2 receptor expressed in HEK293 cells.
The target of the next test is D(3) dopamine receptor (Rattus norvegicus, UniProt P19020). As to the kind of experiment: Displacement of [3H]spiperone from rat D3 receptor expressed in HEK293 cells.
Sequence of D(3) dopamine receptor (P19020 whole entry): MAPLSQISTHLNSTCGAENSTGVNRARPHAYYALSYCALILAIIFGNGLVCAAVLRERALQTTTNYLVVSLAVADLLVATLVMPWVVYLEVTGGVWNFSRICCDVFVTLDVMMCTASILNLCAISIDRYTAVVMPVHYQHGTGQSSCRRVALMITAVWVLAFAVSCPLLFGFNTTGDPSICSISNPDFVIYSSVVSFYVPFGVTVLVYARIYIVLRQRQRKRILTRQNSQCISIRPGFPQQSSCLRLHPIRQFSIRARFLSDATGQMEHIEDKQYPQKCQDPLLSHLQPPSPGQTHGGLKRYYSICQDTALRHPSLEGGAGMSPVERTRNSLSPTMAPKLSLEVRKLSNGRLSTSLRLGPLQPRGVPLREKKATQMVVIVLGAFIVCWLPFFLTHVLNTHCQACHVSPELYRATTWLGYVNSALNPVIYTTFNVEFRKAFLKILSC

Sequence of D(2) dopamine receptor (P61169 whole entry): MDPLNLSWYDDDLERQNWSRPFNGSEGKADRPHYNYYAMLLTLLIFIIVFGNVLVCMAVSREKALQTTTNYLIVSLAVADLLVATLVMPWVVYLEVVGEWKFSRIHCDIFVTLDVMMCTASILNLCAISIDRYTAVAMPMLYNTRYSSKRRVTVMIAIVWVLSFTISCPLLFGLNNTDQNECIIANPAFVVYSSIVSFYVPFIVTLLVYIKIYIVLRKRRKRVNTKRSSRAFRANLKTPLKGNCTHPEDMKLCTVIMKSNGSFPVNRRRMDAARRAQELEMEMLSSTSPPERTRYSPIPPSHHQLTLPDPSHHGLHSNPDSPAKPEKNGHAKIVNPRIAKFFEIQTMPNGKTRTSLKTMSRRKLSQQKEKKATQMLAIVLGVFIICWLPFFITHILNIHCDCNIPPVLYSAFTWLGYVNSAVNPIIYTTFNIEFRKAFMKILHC

With `CCCN(CCN1CCN(c2ccc(-c3ccncc3)cc2)CC1)C1CCc2ccc(O)cc2C1` (stereo not drawn) [(+)-7-(propyl(2-(4-(4-(pyridin-4-yl)-phenyl)piperazin-1-yl)ethyl)amino)-5,6,7,8-tetrahydronaphthalen-2-ol], the Ki at D(2) dopamine receptor came to 0.399 µM; on D(3) dopamine receptor it was 0.0162 µM.
